# From patent US10881110B2, “Herbicidal compositions comprising isoxazolo[5,4-b]pyridines” (BASF SE, priority 2014, dated 2021)
# What was measured:
# Test in all cases: greenhouse post-emergence herbicidal test
# [1] = system: ALOMY; assay type: in vivo, Alopecurus myosuroides; conditions: Alopecurus myosuroides, post-emergence, 480 h, post emergence, read-out: herbicidal activity against ALOMY found
# How it was run: (§1)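 Once 1 to 15 cm tall, potted seedlings in loamy sand received the active compounds emulsified or suspended in water. After 20 days, damage versus untreated growth was graded on a 0–100 scale, and synergy judged against Colby's additive value E.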
# [2] = system: AMBEL; assay type: in vivo, Ambrosia artemisiifolia; set-up: key: rating on a scale from 0 to 100
# Procedure: (§2) The culture containers used were plastic pots containing medium loamy sand with approximately 4.6% of humus and 69.9% sand as substrate. The seeds of the test plants were sown separately for each species.
# (§3) For the post-emergence treatment, the test plants were grown to a plant height of from 1 to 15 cm, depending on the plant habit, and only then treated with the active compounds which had been suspended or emulsified in water. To this end, the test plants were either sown directly, and grown in the same containers, or they were first grown separately as seedlings and transplanted into the test containers a few days prior to treatment.
# (§4) Depending on the species, the plants were kept at 10-25° C. and 20-35° C., respectively.
# (§5) The test period extended over 1 to 3 weeks. During this time, the plants were tended and their response to the individual treatments was evaluated 20 days after treatment except mentioned otherwise.
# (§6) Evaluation was carried out using a scale from 0 to 100. 100 means no emergence of the plants, or complete destruction of at least the above-ground parts, and 0 means no damage or normal course of growth.
# (§7) The respective stated components A and B, and, if appropriate, C, were formulated as a 10% by weight strength emulsion concentrate and, with addition of the amount of solvent system, introduced into the spray liquor used for applying the active compound. In the examples, the solvent used was water.
# (§8) In the examples below, using the method of S. R. Colby (1967) “Calculating synergistic and antagonistic responses of herbicide combinations”, Weeds 15, p. 22 ff., the value E, which is expected if the activity of the individual active compounds is only additive, was calculated. E=X+Y−(X·Y/100)
# [3] = system: ABUTH; assay type: in vivo, Abutilon theophrast; set-up: key to herbicidal activity against ABUTH found: rating on a scale from 0 to 100; conditions: post emergence
# How it was run: as §1
# [4] = system: APESV; assay type: in vivo, Apera spica-venti; conditions: Apera spica-venti, post-emergence, 480 h, post emergence, read-out: herbicidal activity against APESV found
# How it was run: as §1
# [5] = system: MATCH; assay type: in vivo, Matricaria recutita; set-up: key to herbicidal activity against MATCH found: rating on a scale from 0 to 100; conditions: post emergence
# How it was run: as §1
# [6] = system: IPOHE; assay type: in vivo, Ipomoea hederacea; conditions: Ipomoea hederacea, post-emergence, 480 h, B.32 alone 6 g/ha a.i., post emergence; read-out: herbicidal activity against IPOHE found
# How it was run: (§9)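 Post-emergence greenhouse test: plants in loamy sand, sprayed at 1–15 cm height with aqueous spray liquor from 10% emulsion concentrates, kept at 10-25 °C or 20-35 °C by species. Damage scored 0–100 (100 = complete destruction), usually 20 days after treatment. Expected additive effect E from Colby: E=X+Y−(X·Y/100).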
# [7] = system: POLCO; assay type: in vivo, Polygonum convolvulus; conditions: Fallopia convolvulus, post-emergence, 480 h, B.32 alone 3 g/ha a.i., post emergence; read-out: herbicidal activity against POLCO found
# How it was run: as §9
# [8] = system: CONAR; assay type: in vivo, Convolvulus arvensis; set-up: key: rating on a scale from 0 to 100
# Procedure: as §2, §3, §4, §5, §6, §7, §8
# [9] = system: GALAP; assay type: in vivo, Galium aparine; set-up: key to herbicidal activity against GALAP found: rating on a scale from 0 to 100; conditions: post emergence, 20 days after treatment
# How it was run: as §9
# [10] = system: CHEAL; assay type: in vivo, Chenopodium album
# Procedure: as §2, §3, §4, §5, §6, §7, §8
# [11] = system: ERICA; assay type: in vivo, Conyza canadensis; set-up: key to herbicidal activity against ERICA found: rating on a scale from 0 to 100; conditions: post emergence
# How it was run: as §1
# [12] = system: ECHCG; assay type: in vivo, Echinochloa crus-galli; conditions: Echinochloa crus-galli, post-emergence, 480 h, single active, 100 g/ha a.i., post emergence; read-out: herbicidal activity against ECHCG found
# How it was run: as §1
# [13] = a.i. g/ha: I.1 31.25, B.69 25, 20 days after treatment
# [14] = a.i. g/ha: I.1 62.5, B.69 25, 20 days after treatment
smiles,measurement,setting,value
"Cc1cnc(C2=NC(=O)C(C)(C(C)C)N2)c(C(=O)O)c1 (stereo not shown) [B.32, imazapic]",pest or weed control at 3 g/ha,[1]; B.32 alone 3 g/ha a.i.,25%
same,herbicidal activity against AMBEL found,[2]; B.32 alone 3 g/ha a.i.,0
same,herbicidal activity against AMBEL found,[2]; B.32 alone 6 g/ha a.i.,65
same,pest or weed control at 6 g/ha,"[3]; Abutilon theophrasti, post-emergence, 480 h, B.32 alone 6 g/ha a.i., read-out: herbicidal activity against ABUTH found",85%
same,pest or weed control at 3 g/ha,[4]; B.32 alone 3 g/ha a.i.,65%
same,pest or weed control at 6 g/ha,[4]; B.32 alone 6 g/ha a.i.,80%
same,pest or weed control at 3 g/ha,"[5]; Matricaria chamomilla, post-emergence, 480 h, B.32 alone 3 g/ha a.i., read-out: herbicidal activity against MATCH found",0%
same,pest or weed control at 6 g/ha,"[5]; Matricaria chamomilla, post-emergence, 480 h, B.32 alone 6 g/ha a.i., read-out: herbicidal activity against MATCH found",30%
same,pest or weed control at 6 g/ha,[6],75%
same,pest or weed control at 3 g/ha,[7],85%
"N#Cc1cc(Br)c(O)c(Br)c1 [B.69, bromoxynil]",herbicidal activity against CONAR found,[8]; [13],50%
same,herbicidal activity against CONAR found,[8]; [14],50%
same,herbicidal activity against GALAP found,"[9]; a.i. g/ha: I.1 62.5, B.69 25",50%
same,herbicidal activity against ABUTH found,[3]; [14],35%
same,herbicidal activity against CHEAL found,[10]; [13],60%
same,herbicidal activity against CHEAL found,[10]; [14],60%
same,herbicidal activity against ERICA found,[11]; [14],30%
same,herbicidal activity against MATCH found,[5]; [13],0%
"CCNc1nc(Cl)nc(NC(C)(C)C)n1 [B.82, terbuthylazine]",herbicidal activity against GALAP found,"[9]; a.i. g/ha: I.1 62.5, B.82 31.25",55%
same,herbicidal activity against CHEAL found,"[10]; a.i. g/ha: I.1 62.5, B.82 31.25, 20 days after treatment",65%
"CCOc1cc(Oc2ccc(C(F)(F)F)cc2Cl)ccc1[N+](=O)[O-] [B.91, oxyfluorfen]",pest or weed control at 100 g/ha,"[1]; single active, 100 g/ha a.i.",85%
same,herbicidal activity against AMBEL found,"[2]; single active, 100 g/ha a.i.",70
same,pest or weed control at 100 g/ha,[12],60%
same,pest or weed control at 100 g/ha,"[11]; Erigeron canadensis, post-emergence, 480 h, single active, 100 g/ha a.i., read-out: herbicidal activity against ERICA found",0%
same,pest or weed control at 200 g/ha,"[11]; Erigeron canadensis, post-emergence, 480 h, single active, 200 g/ha a.i., read-out: herbicidal activity against ERICA found",90%
